Reference: US20240124432A1, “HERBICIDAL COMPOUNDS” (SYNGENTA CROP PROTECTION AG, priority 2020, published 2024)

Legend:
Assay type in all cases: in vivo
AMAPA [1] = assay: Pre-emergence biological efficacy; details: Amaranthus palmeri, 312 h, evaluated after 13 days, read-out: damage to plant (100=total damage to plant; 0=no damage to plant)
Description: (§1) Seeds of weeds and/or crops were sown in standard soil in pots. After cultivation for one day under controlled conditions in a glasshouse (at 24/19° C., day/night; 16 hours light), the plants were sprayed with an aqueous spray solution derived from the formulation of the technical active ingredient in a small amount of acetone and a special solvent and emulsifier mixture referred to as IF50 (11.12% Emulsogen EL360 TM+44.44% N-methylpyrrolidone+44.44% Dowanol DPM glycol ether), to create a 50g/l solution which was then diluted using 0.2% Genapol XO80 as diluent to give the desired final dose of test compound.
(§2) The test plants were then grown under controlled conditions in the glasshouse (at 24/18° C., day/night; 15 hours light; 50% humidity) and watered twice daily. After 13 days the test was evaluated (100=total damage to plant; 0=no damage to plant).

SETFA [2] = assay: Pre-emergence biological efficacy; details: Setaria faberi, 312 h, evaluated after 13 days, read-out: damage to plant (100=total damage to plant; 0=no damage to plant)
Description: as §1, §2

ECHCG [3] = assay: Pre-emergence biological efficacy; details: Echinochloa crus-galli, 312 h, evaluated after 13 days, read-out: damage to plant (100=total damage to plant; 0=no damage to plant)
Description: as §1, §2

EPHHL [4] = assay: Pre-emergence biological efficacy; details: Euphorbia heterophylla, 312 h, evaluated after 13 days, read-out: damage to plant (100=total damage to plant; 0=no damage to plant)
Description: as §1, §2

LOLPE [5] = assay: Pre-emergence biological efficacy; details: Lolium perenne, 312 h, evaluated after 13 days, read-out: damage to plant (100=total damage to plant; 0=no damage to plant)
Description: as §1, §2

IPOHE [6] = assay: Pre-emergence biological efficacy; details: Ipomoea hederacea, 312 h, evaluated after 13 days, read-out: damage to plant (100=total damage to plant; 0=no damage to plant)
Description: as §1, §2

ELEIN = assay: Post-emergence biological efficacy; details: 312 h, evaluated after 13 days, read-out: damage to plant (100=total damage to plant; 0=no damage to plant)
Description: as §1, with “14 days” for “one day”
(§3) The test plants were then grown under controlled conditions in the glasshouse (at 24/18° C., day/night; 15 hours light; 50% humidity)and watered twice daily. After 13 days the test was evaluated (100=total damage to plant; 0=no damage to plant).

AMAPA [7] = assay: Post-emergence biological efficacy; details: Amaranthus palmeri, 312 h, evaluated after 13 days, read-out: damage to plant (100=total damage to plant; 0=no damage to plant)
Description: as §1, with “14 days” for “one day”
as §3

SETFA [8] = assay: Post-emergence biological efficacy; details: Setaria faberi, 312 h, evaluated after 13 days, read-out: damage to plant (100=total damage to plant; 0=no damage to plant)
Description: as §1, with “14 days” for “one day”
as §3

ECHCG [9] = assay: Post-emergence biological efficacy; details: Echinochloa crus-galli, 312 h, evaluated after 13 days, read-out: damage to plant (100=total damage to plant; 0=no damage to plant)
Description: as §1, with “14 days” for “one day”
as §3

CHEAL = assay: Post-emergence biological efficacy; details: Chenopodium album, 312 h, evaluated after 13 days, read-out: damage to plant (100=total damage to plant; 0=no damage to plant)
Description: as §1, with “14 days” for “one day”
as §3

DIGSA = assay: Post-emergence biological efficacy; details: Digitaria sanguinalis, 312 h, evaluated after 13 days, read-out: damage to plant (100=total damage to plant; 0=no damage to plant)
Description: as §1, with “14 days” for “one day”
as §3

EPHHL [10] = assay: Post-emergence biological efficacy; details: Euphorbia heterophylla, 312 h, evaluated after 13 days, read-out: damage to plant (100=total damage to plant; 0=no damage to plant)
Description: as §1, with “14 days” for “one day”
as §3

LOLPE [11] = assay: Post-emergence biological efficacy; details: Lolium perenne, 312 h, evaluated after 13 days, read-out: damage to plant (100=total damage to plant; 0=no damage to plant)
Description: as §1, with “14 days” for “one day”
as §3

IPOHE [12] = assay: Post-emergence biological efficacy; details: Ipomoea hederacea, 312 h, evaluated after 13 days, read-out: damage to plant (100=total damage to plant; 0=no damage to plant)
Description: as §1, with “14 days” for “one day”
as §3

SMILES | pest or weed control at 250 g/ha (AMAPA [1]) | pest or weed control at 250 g/ha (SETFA [2]) | pest or weed control at 250 g/ha (ECHCG [3]) | pest or weed control at 250 g/ha (EPHHL [4]) | pest or weed control at 250 g/ha (LOLPE [5]) | pest or weed control at 250 g/ha (IPOHE [6]) | pest or weed control at 250 g/ha (ELEIN) | pest or weed control at 250 g/ha (AMAPA [7]) | pest or weed control at 250 g/ha (SETFA [8]) | pest or weed control at 250 g/ha (ECHCG [9]) | pest or weed control at 250 g/ha (CHEAL) | pest or weed control at 250 g/ha (DIGSA) | pest or weed control at 250 g/ha (EPHHL [10]) | pest or weed control at 250 g/ha (LOLPE [11]) | pest or weed control at 250 g/ha (IPOHE [12])
CCOC(=O)C1(C)CC(c2cc(-c3cc(Cl)cnc3F)c(F)cc2Cl)=NO1 (stereo not drawn) [Compound 1-199, Ethyl 3-[2-chloro-5-(5-chloro-2-fluoro-3-pyridyl)-4-fluoro-phenyl]-5-methyl-4H-isoxazole-5-carboxylate] | 80% | 10% | 0% | 30% | 10% | 0% | 20% | 100% | 60% | 70% | 90% | 50% | 90% | 40% | 100%
CCOC(=O)C1(C)CC(c2cc(-c3cccnc3F)c(F)cc2Cl)=NO1 (stereo not drawn) [Compound 1-211, Ethyl 3-[2-chloro-4-fluoro-5-(2-fluoro-3-pyridyl)phenyl]-5-methyl-4H-isoxazole-5-carboxylate] | 0% | 0% | 0% | 0% | 0% | 0% | 20% | 100% | 20% | 20% | 90% | 10% | 30% | 0% | 50%
CCOC(=O)C1(C)CC(c2cc(-c3cc(C)cnc3F)c(F)cc2Cl)=NO1 (stereo not drawn) [Compound 1-223, Ethyl 3-[2-chloro-4-fluoro-5-(2-fluoro-5-methyl-3-pyridyl)phenyl]-5-methyl-4H-isoxazole-5-carboxylate] | 0% | 0% | 0% | 0% | 0% | 0% | 10% | 100% | 80% | 50% | 80% | 30% | 70% | 20% | 100%
CCOC(=O)C1(C)CC(c2cc(-c3cc(C(F)(F)F)cnc3F)c(F)cc2Cl)=NO1 (stereo not drawn) [Compound 1-235, Ethyl 3-[2-chloro-4-fluoro-5-[2-fluoro-5-(trifluoromethyl)-3-pyridyl]phenyl]-5-methyl-4H-isoxazole-5-carboxylate] | 100% | 0% | 0% | 50% | 0% | 60% | 100% | 100% | 100% | 60% | 100% | 70% | 100% | 60% | 100%
CCOC(=O)C1(C)CC(c2cc(-c3cccnc3)c(F)cc2Cl)=NO1 (stereo not drawn) [Compound 1-247, Ethyl 3-[2-chloro-4-fluoro-5-(3-pyridyl)phenyl]-5-methyl-4H-isoxazole-5-carboxylate] | 60% | 0% | 0% | 0% | 0% | 0% | 10% | 0% | 0% | 0% | 0% | 0% | 10% | 0% | 0%
CCOC(=O)C1(C)CC(c2cc(-c3cnccc3OC)c(F)cc2Cl)=NO1 (stereo not drawn) [Compound 1-259, Ethyl 3-[2-chloro-4-fluoro-5-(4-methoxy-3-pyridyl)phenyl]-5-methyl-4H-isoxazole-5-carboxylate] | 0% | 0% | 0% | 0% | 0% | 0% | 20% | 60% | 30% | 20% | 80% | 40% | 20% | 0% | 30%
CCOC(=O)C1(C)CC(c2cc(-c3cncc(Cl)c3)c(F)cc2Cl)=NO1 (stereo not drawn) [Compound 1-271, Ethyl 3-[2-chloro-5-(5-chloro-3-pyridyl)-4-fluoro-phenyl]-5-methyl-4H-isoxazole-5-carboxylate] | 0% | 0% | 0% | 0% | 0% | 0% | 20% | 90% | 50% | 20% | 70% | 20% | 40% | 0% | 100%
CCOC(=O)C1(C)CC(c2cc(-c3ccc(C)nc3)c(F)cc2Cl)=NO1 (stereo not drawn) [Compound 1-283, Ethyl 3-[2-chloro-4-fluoro-5-(6-methyl-3-pyridyl)phenyl]-5-methyl-4H-isoxazole-5-carboxylate] | 0% | 0% | 0% | 20% | 0% | 0% | 0% | 70% | 20% | 10% | 30% | 20% | 60% | 0% | 40%
CCOC(=O)C1(C)CC(c2cc(-c3ccnc(F)c3)c(F)cc2Cl)=NO1 (stereo not drawn) [Compound 1-295, Ethyl 3-[2-chloro-4-fluoro-5-(2-fluoro-4-pyridyl)phenyl]-5-methyl-4H-isoxazole-5-carboxylate] | 0% | 0% | 0% | 0% | 0% | 0% | 10% | 90% | 10% | 10% | 70% | 10% | 50% | 0% | 50%
